≈ marks a conversion by molar mass, not a printed value. Read-outs that look alike come from different tables or passages of the source.
Columns and labels:
[1] = Solubility in water (HPLC, shaken 2 hours at room temperature); conditions: for Dissolved amount (Y): amount in 5 μl injected, purified water with 0.1 N hydrochloric acid, room temperature, 2 hours; for solubility thermodynamic at 2 h: water with 0.1 n hcl
Method: I) Preparation of calibration curves:
Using 20 μl portions of the standard solutions, tests were conducted by HPLC (operation conditions 1).
[HPLC operation conditions 1]
Column: Inertsil ODS-2 (5-250), 40 deg.
Mobile phase: 0.01 M KH2 PO4 --CH3 CN (5:4).
Detection: Ultraviolet absorption photometer (225 nm), 0.08AUFS.
To the respective suspensions, 0.1 N hydrochloric acid was added in amounts of 35 λl and 30 μl (1.1 eq.). By ultrasonication the resulting mixtures were formed into uniform suspensions, which were then shaken at room temperature for 2 hours. The thus-obtained mixtures were filtered through membrane filters (0.22 pm), and the filtrates were provided as test solutions. Using 5 μl portions of the test solutions, tests were conducted by HPLC (operation conditions 1).
I) Preparation of calibration curve:
By ultra-sonication the suspension was formed into a uniform suspension, which was then shaken at room temperature for 2 hours.
Using 20 At of the standard solution, a test was conducted by HPLC (operation conditions 1).
Operation conditions for the HPLC operation were set as in Test 1.
By ultrasonication the resulting mixture was formed into a uniform suspension, which was then shaken at room temperature for 2 hours. The mixture was filtered through a membrane filter (0.22 pm), and the filtrate was provided as a test solution. Using 5 μl of the test solution, a test was conducted by HPLC (the above operation conditions).

[2] = system: cell strain KB derived from a human mouth cancer; assay: Growth inhibitory activity against KB cells (XTT assay); format: cell-based; conditions: for GI50: Homo sapiens, 72 h, read-out: 50% Growth Inhibitory Concentration (GI50), KB; for Activity ratio: KB GI50 relative to Taxol (Taxol = 1.0)
Method: Growth Inhibitory Activities of Taxane Derivatives (1)
As a cell strain KB derived from a human mouth cancer, one purchased from Dainippon Pharmaceutical Co., Ltd. and stored in a lyophilized form at The Central Research Center, Yakult Honsha Co., Ltd. was used. In Dulbeccols modefied Earglets medium containing 10% fetal bovine serum (product of NISSUI PHARMACEUTICAL CO., LTD.), the KB was maintenance-cultured under the following conditions: 5%, CO2 -air, 37° C.
Each compound was used by dissolving it at a concentration of 10 mg/ml in DMSO.
On Day-1, cells which were in a logarithmic growth phase were inoculated at 2,000 cells/100 μl/well on 96-well microtiter plates (Falcon #3072) by using a phenol-red-free culture medium with 10% fetal bovine serum contained therein (Dulbecco's molefied Eargle's medium (Sigma)), and were cultured overnight. On Day 0, the compounds each of which had been diluted to 0.03 to 10,000 ng/ml with the same culture medium were added in 100 μl aliquots to the individual wells, and the cells were cultured for 3 days. Three wells were used per each drug concentration. Each plate was provided with three blank wells containing only the culture medium and also with eight wells as a drug-untreated control.
Before use, XTT (Sigma) was dissolved at a concentration of 1 mg/me in each culture media which as free of serum. Phenodin methosulfate (Sigma) dissolved at a concentration of 5 mM in PBS was added to the resulting solution at a volume ratio of 1/200. To each well, the solution so prepared was added in an amount of 50 μl per well. Subsequent to culture for 4 hours, OD was measured at 450 nm by ELISA.
Calculation of 50% Growth Inhibitory Concentration (GI50)
GI50 was calculated by interpolation from a concentration-growth inhibition rate (GIR). GIR was determined in accordance with the following formula: [formula] Bibiography Scudiero D A, et al., Cacer Res., 48, 4827-4833, 1988.
1994 Report of The Anticancer Agent Screening Special Committee, "Cancers and Chemotherapy", 21, 1306-1307.

[3] = system: ovarian cancer and breast cancer; conditions: Ann. int. Med. 111, 273, 1989; cited from earlier work
[4] = background statement; cited from earlier work
[5] = purified water with hydrochloric acid

| SMILES | Dissolved amount (Y) [1] | solubility at 2 h [1, 5] | solubility thermodynamic at 2 h [1] | GI50 ([2]; KB) | Activity ratio [2] | GI50 ([2]; KB cells, 3 days culture, XTT) | other results |
| --- | --- | --- | --- | --- | --- | --- | --- |
| CC(=O)O[C@@]12CO[C@@H]1C[C@H](O)[C@@]1(C)C(=O)[C@H](OC(=O)N3CCC(N(C)C)CC3)C3=C(C)[C@@H](OC(=O)[C@H](O)[C@@H](NC(=O)OC(C)(C)C)c4ccccc4)C[C@@](O)([C@@H](OC(=O)c4ccccc4)[C@H]21)C3(C)C [Compound 3, 13-O-[3-(tert-Butoxycarbonylamino)-2-hydroxy-3-phenylpropionyl]-10-O-(4-dimethylaminopiperidinocarbonyl)-10-deacetylbaccatin III] | 6.31 μg/5 μl | 1260 µg/mL (≈ 1310 µM) | 1260 µg/mL (≈ 1310 µM) |  |  |  |  |
| CCCN(CCC)C1CCN(C(=O)O[C@H]2C(=O)[C@@]3(C)[C@H]([C@H](OC(=O)c4ccccc4)[C@]4(O)C[C@H](OC(=O)[C@H](O)[C@@H](NC(=O)OC(C)(C)C)c5ccccc5)C(C)=C2C4(C)C)[C@]2(OC(C)=O)CO[C@@H]2C[C@@H]3O)CC1 [Compound 6, 13-O-[3-(tert-Butoxycarbonylamino)-2-hydroxy-3-phenylpropionyl]-10-O-(4-dipropylaminopiperidinocarbonyl)-10-deacetylbaccatin III] |  |  |  | 0.73 ng/mL (≈ 0.000717 µM) | 2.7 |  |  |
| CC(=O)O[C@@]12CO[C@@H]1C[C@H](O)[C@@]1(C)C(=O)[C@H](OC(=O)N3CCC(N4CCCCC4)CC3)C3=C(C)[C@@H](OC(=O)[C@H](O)[C@@H](NC(=O)OC(C)(C)C)c4ccccc4)C[C@@](O)([C@@H](OC(=O)c4ccccc4)[C@H]21)C3(C)C [Compound 9, 13-O-[3-(tert-Butoxycarbonylamino)-2-hydroxy-3-phenylpropionyl]-10-O-(4-piperidinopiperidinocarbonyl)-10-deacetylbaccatin III] |  |  |  |  | 2.6 | 0.78 ng/mL (≈ 0.000778 µM) |  |
| CC(=O)O[C@@]12CO[C@@H]1C[C@H](O)[C@@]1(C)C(=O)[C@H](OC(=O)N3CCN(C)CC3)C3=C(C)[C@@H](OC(=O)[C@H](O)[C@@H](NC(=O)OC(C)(C)C)c4ccccc4)C[C@@](O)([C@@H](OC(=O)c4ccccc4)[C@H]21)C3(C)C [Compound 39, 13-O-[3-(tert-Butoxycarbonylamino)-2-hydroxy-3-phenylpropionyl]-10-O-(4-methylpiperazinocarbonyl)-10-deacetylbaccatin III] |  |  |  |  | 3.4 | 0.59 ng/mL (≈ 0.000632 µM) |  |
| CCN1CCN(C(=O)O[C@H]2C(=O)[C@@]3(C)[C@H]([C@H](OC(=O)c4ccccc4)[C@]4(O)C[C@H](OC(=O)[C@H](O)[C@@H](NC(=O)OC(C)(C)C)c5ccccc5)C(C)=C2C4(C)C)[C@]2(OC(C)=O)CO[C@@H]2C[C@@H]3O)CC1 [Compound 42, 13-O-[3-(tert-Butoxycarbonylamino)-2-hydroxy-3-phenylpropionyl]-10-O-(4-ethylpiperazinocarbonyl)-10-deacetylbaccatin III] | 5.90 μg/5 μl | 1180 µg/mL (≈ 1240 µM) | 1180 µg/mL (≈ 1240 µM) | 0.65 ng/mL (≈ 0.000686 µM) | 3.1 |  |  |
| CC(=O)O[C@@]12CO[C@@H]1C[C@H](O)[C@@]1(C)C(=O)[C@H](OC(=O)N3CCN(CC(=O)NC(C)C)CC3)C3=C(C)[C@@H](OC(=O)[C@H](O)[C@@H](NC(=O)OC(C)(C)C)c4ccccc4)C[C@@](O)([C@@H](OC(=O)c4ccccc4)[C@H]21)C3(C)C [Compound 45, 13-O-[3-(tert-Butoxycarbonylamino)-2-hydroxy-3-phenylpropionyl]-10-O-[4-(isopropylaminocarbonylmethyl)piperazinocarbonyl]-10-deacetylbaccatin III] |  |  |  |  | 2.3 | 0.86 ng/mL (≈ 0.000844 µM) |  |
| CC(=O)O[C@H]1C(=O)[C@@]2(C)[C@H]([C@H](OC(=O)c3ccccc3)[C@]3(O)C[C@H](OC(=O)[C@H](O)[C@@H](NC(=O)N4CCC(N5CCCCC5)CC4)c4ccccc4)C(C)=C1C3(C)C)[C@]1(OC(C)=O)CO[C@@H]1C[C@@H]2O [Compound 58, 13-O-[2-Hydroxy-3-phenyl-3-(4-piperidinopiperidinocarbonylamino)propionyl]baccatin III] | 7.95 μg/5 μl | 1590 µg/mL (≈ 1680 µM) | 1590 µg/mL (≈ 1680 µM) |  |  |  |  |
| CC(=O)O[C@H]1C(=O)[C@@]2(C)[C@H]([C@H](OC(=O)c3ccccc3)[C@]3(O)C[C@H](OC(=O)[C@H](O)[C@@H](NC(=O)c4ccccc4)c4ccccc4)C(C)=C1C3(C)C)[C@]1(OC(C)=O)CO[C@@H]1C[C@@H]2O [Taxol, reference compound] |  |  |  | 2 ng/mL (≈ 0.00234 µM) |  |  | efficacy against ovarian cancer and breast cancer [3]: high efficacy against ovarian cancer and breast cancer; solubility at 2 h ([1]; purified water): 0.4 µg/mL (≈ 0.468 µM); solubility in water (in words) [4]: sparingly soluble in water |
